Values of other authors in PMC10464202, “Discovery of novel JAK1 inhibitors through combining machine learning, structure-based pharmacophore modeling and bio-evaluation” (Journal of Translational Medicine, 2023).

Biological target: JAK1 (Homo sapiens, UniProt P23458)
Conditions: JAK1 inhibitors obtained by literature search; read-out: IC50 of training set (Hiphop)

Chain of JAK1 (P23458 whole entry): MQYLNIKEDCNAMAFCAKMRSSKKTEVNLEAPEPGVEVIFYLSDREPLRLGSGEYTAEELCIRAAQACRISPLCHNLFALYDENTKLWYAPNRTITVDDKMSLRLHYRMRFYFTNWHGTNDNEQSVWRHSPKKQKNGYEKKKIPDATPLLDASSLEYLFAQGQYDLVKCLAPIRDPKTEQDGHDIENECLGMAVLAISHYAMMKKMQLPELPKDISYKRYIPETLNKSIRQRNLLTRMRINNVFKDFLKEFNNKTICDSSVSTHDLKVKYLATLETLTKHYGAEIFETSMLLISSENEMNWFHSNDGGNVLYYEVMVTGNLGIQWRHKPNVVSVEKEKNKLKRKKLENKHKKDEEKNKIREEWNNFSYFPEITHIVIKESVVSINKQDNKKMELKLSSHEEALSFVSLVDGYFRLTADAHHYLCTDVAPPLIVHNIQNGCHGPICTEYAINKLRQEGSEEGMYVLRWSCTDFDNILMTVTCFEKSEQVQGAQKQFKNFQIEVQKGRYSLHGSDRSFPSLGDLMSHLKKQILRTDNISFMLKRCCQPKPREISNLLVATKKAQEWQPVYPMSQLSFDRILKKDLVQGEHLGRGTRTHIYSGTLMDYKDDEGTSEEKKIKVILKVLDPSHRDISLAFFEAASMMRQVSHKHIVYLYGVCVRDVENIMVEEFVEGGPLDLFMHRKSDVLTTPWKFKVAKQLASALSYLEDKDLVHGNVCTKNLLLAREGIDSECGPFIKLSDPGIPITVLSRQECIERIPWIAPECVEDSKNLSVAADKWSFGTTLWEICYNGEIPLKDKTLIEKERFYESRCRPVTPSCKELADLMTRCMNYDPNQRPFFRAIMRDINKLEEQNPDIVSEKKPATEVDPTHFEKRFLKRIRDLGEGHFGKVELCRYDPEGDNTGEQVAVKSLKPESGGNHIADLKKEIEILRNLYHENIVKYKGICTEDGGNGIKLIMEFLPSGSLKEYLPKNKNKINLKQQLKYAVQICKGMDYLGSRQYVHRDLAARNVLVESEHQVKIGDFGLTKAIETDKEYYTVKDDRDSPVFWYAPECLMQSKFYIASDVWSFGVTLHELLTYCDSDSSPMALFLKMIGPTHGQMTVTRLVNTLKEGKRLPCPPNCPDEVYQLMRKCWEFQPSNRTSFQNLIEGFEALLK

Cc1ccc(C(=O)Nc2cccc3c(-c4nc(Nc5cnn(C)c5)ncc4C)c[nH]c23)c(C)n1 [Compound 5]
IC50: 4 nM
